Source: US4175081A, “5-Substituted thiadiazole ureas” (priority 1977, dated 1979)

Key:
Cotton (CT) [1] = assay: Post-emergence herbicide test; format: in vivo, Gossypium hirsutum var. DPL smooth leaf; details: Gossypium hirsutum, post-emergence, 336 h, two weeks after treatment
Procedure, shortened: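 Cotton (Gossypium hirsutum var. DPL smooth leaf) was grown in 3' plastic pots of potting soil, four seeds per pot, planted at a depth equal to the seed diameter and watered by sub-irrigation. At the stage of expanded cotyledons with the first true leaf 1' long, plants were sprayed post-emergence in a hood with a fixed nozzle over a moving belt. Percent control was rated visually two weeks later.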

Turnip (TP) [2] = assay: Pre-emergence herbicide test; format: in vivo, Brassica sp.; details: Brassica rapa, pre-emergence, 336 h, two weeks after treatment
Procedure, shortened: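 Turnip (Brassica sp.) seeds were surface sown in 3' plastic pots of potting soil, covered with a thin layer of screened soil, and sub-irrigated in greenhouse trays. Pots were seeded one day ahead of treatment, sprayed pre-emergence under a hood with a fixed nozzle and moving belt, then kept in the greenhouse.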

Cotton (CT) [3] = assay: Pre-emergence herbicide test; format: in vivo, Gossypium hirsutum var. DPL smooth leaf; details: Gossypium hirsutum, 336 h, two weeks after treatment
Procedure, shortened: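 Crop and weed species seeded one day before treatment, then sprayed pre-emergence at 8 lbs actual compound per acre (also 4 lbs/acre formulations) in 38 gallons per acre. Pots kept in greenhouse with sub-irrigation only; injury or control visually rated two weeks after treatment.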

Crabgrass (CG) [4] = assay: Pre-emergence herbicide test; format: in vivo, Digitaria sanquinalis; details: Digitaria sanguinalis, pre-emergence, 336 h, two weeks after treatment
Procedure, shortened: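 Crabgrass (Digitaria sanquinalis) was surface seeded in 3' plastic pots of potting soil, covered with screened soil, and watered by sub-irrigation in greenhouse trays. Pots were seeded one day before spraying in a hood with a moving belt and fixed nozzle. Plants stayed in the greenhouse on sub-irrigation, and pre-emergence control was rated visually two weeks after treatment.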

Bean (BN) [5] = assay: Pre-emergence herbicide test; format: in vivo, Phaseolus vulgaris var. Black Valentine; details: Phaseolus vulgaris, 336 h, two weeks after treatment
Procedure, shortened: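 Black Valentine bean was seeded in potting soil one day before spraying. Compound was applied pre-emergence at 8 lbs/acre (also 4 lbs/acre) in 38 gallons per acre. Plants were sub-irrigated and injury or control was rated visually after two weeks.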

Johnson grass (JG) = assay: Pre-emergence herbicide test; format: in vivo, Sorgum helepense; details: Sorghum halepense, 336 h, two weeks after treatment
Procedure, shortened: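 Pots seeded one day before spraying; compound applied pre-emergence at 8 lbs/acre (or 4 lbs/acre) in 38 gallons/acre spray volume. Sub-irrigated in greenhouse; injury/control rated visually two weeks after treatment.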

Amaranth pigweed (PW) = assay: Pre-emergence herbicide test; format: in vivo, Amaranthus retroflexus; details: 336 h, two weeks after treatment
Experimental: All crop and weed species were planted individually in 3' plastic pots containing potting soil. Four seeds each of corn, cotton, and snapbeans were seeded to a depth equal to the diameter of the seed. All other species were surface seeded and sprinkled with screened soil in an amount sufficient to cover the seed. Immediately after planting, all pots were watered by sub-irrigation in greenhouse trays. Pots for the pre-emergence phase were seeded one day before treatment.
Compounds were tested at rates of application equivalent to 8 lbs. of actual compound per acre in a spray volume of 38 gallons per acre. Spray hood constants required to deliver the above volume are as follows:
Formulations for spray applications were prepared in 50 ml volumes with the following three components:
Formulations for the 4 lbs/acre rate were prepared by adjusting the amount of active ingredient accordingly.
Spray applications were made in a hood containing a removable belt and fixed spray nozzle. For passage through the spray hood, one pot of each specie (pre-emergence phase) was placed on the rear half of the flat. Treatments were removed to the greenhouse after spraying. Watering during the observation period was done only by sub-irrigation.
Two weeks after treatment, pre- and post-emergence injury or control was visually rated, and the results were as shown in the following tables. Pre-emergence data are provided in TABLE III and post-emergence data are provided in TABLE IV, for compounds having the formula illustrated in TABLE I. Correspondingly, pre-emergence and post-emergence data, respectively, are set forth in TABLES V AND VI, for compounds having the formula illustrated in TABLE II.

Bean (BN) [6] = assay: Post-emergence herbicide test; format: in vivo, Phaseolus vulgaris var. Black Valentine; details: Phaseolus vulgaris, post-emergence, 336 h, two weeks after treatment
Procedure, shortened: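 Snapbean (Phaseolus vulgaris var. Black Valentine) was tested post-emergence. Four seeds were sown in 3' plastic pots of potting soil at a depth equal to the seed diameter, then sub-irrigated in greenhouse trays. Planting dates were staggered so plants were sprayed once primary leaves had expanded, with the growing point at the primary leaf nodes.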

Crabgrass (CG) [7] = assay: Post-emergence herbicide test; format: in vivo, Digitaria sanquinalis; details: Digitaria sanguinalis, post-emergence, 336 h, two weeks after treatment
Procedure, shortened: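 Crabgrass (Digitaria sanquinalis) was surface seeded individually in 3' plastic pots of potting soil, covered with screened soil, and watered by sub-irrigation in greenhouse trays. Planting was staggered so seedlings reached the target stage together. Post-emergence sprays were applied in a hood with a removable belt and fixed nozzle, and control was visually rated two weeks after treatment.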

Turnip (TP) [8] = assay: Post-emergence herbicide test; format: in vivo, Brassica sp.; details: Brassica rapa, post-emergence, 336 h, two weeks after treatment
Procedure, shortened: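 A greenhouse post-emergence herbicide test on turnip. Seeds were sown on the surface of potting soil in 3' plastic pots, lightly covered with screened soil and watered from below. Planting was timed so seedlings had 1 or 2 true leaves above the cotyledons at spraying, done in a hood with a fixed nozzle. Control or injury was scored by eye after two weeks.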

Corn (CN) = assay: Pre-emergence herbicide test; format: in vivo; details: Zea mays, 336 h, two weeks after treatment
Procedure, shortened: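 Four corn seeds per pot, sown at seed-diameter depth one day before spraying, got soil surface treatment at 8 lbs/acre (4 lbs/acre formulations also prepared) in 38 gallons/acre. Pots were greenhouse-held with sub-irrigation only. Injury or control was scored visually two weeks after treatment.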

Barnyard grass (BG) = assay: Pre-emergence herbicide test; format: in vivo; details: Echinochloa crus-galli, 336 h, two weeks after treatment
Procedure, shortened: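 Barnyard grass surface-seeded in potting soil and sprayed pre-emergence one day after seeding, at 8 or 4 lb compound/acre in 38 gal/acre spray volume. Pots kept in greenhouse with sub-irrigation only; injury or control rated visually two weeks after treatment.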

CCCCSc1nnc(N(C)C(=O)NC)s1 [Example 90]
pest or weed control at 560.425 g/ha (Cotton (CT) [1]; 0.5 lb/acre): 100% | pest or weed control at 1120.85 g/ha (Cotton (CT) [1]; 1 lb/acre): 100% | pest or weed control at 2241.7 g/ha (Cotton (CT) [1]; 2 lb/acre): 100% | pest or weed control at 4483.4 g/ha (Cotton (CT) [1]; 4 lb/acre): 100% | pest or weed control at 560.425 g/ha (Turnip (TP) [2]; 0.5 lb/acre): 10% | pest or weed control at 1120.85 g/ha (Turnip (TP) [2]; 1 lb/acre): 10% | pest or weed control at 2241.7 g/ha (Turnip (TP) [2]; 2 lb/acre): 60% | pest or weed control at 4483.4 g/ha (Turnip (TP) [2]; 4 lb/acre): 80% | pest or weed control at 560.425 g/ha (Cotton (CT) [3]; 0.5 lb/acre): 10% | pest or weed control at 1120.85 g/ha (Cotton (CT) [3]; 1 lb/acre): 10% | pest or weed control at 2241.7 g/ha (Cotton (CT) [3]; 2 lb/acre): 30% | pest or weed control at 4483.4 g/ha (Cotton (CT) [3]; 4 lb/acre): 50% | pest or weed control at 560.425 g/ha (Crabgrass (CG) [4]; 0.5 lb/acre): 10% | pest or weed control at 1120.85 g/ha (Crabgrass (CG) [4]; 1 lb/acre): 10% | pest or weed control at 2241.7 g/ha (Crabgrass (CG) [4]; 2 lb/acre): 90% | pest or weed control at 4483.4 g/ha (Crabgrass (CG) [4]; 4 lb/acre): 90% | pest or weed control at 560.425 g/ha (Bean (BN) [5]; 0.5 lb/acre): 10% | pest or weed control at 1120.85 g/ha (Bean (BN) [5]; 1 lb/acre): 10% | pest or weed control at 2241.7 g/ha (Bean (BN) [5]; 2 lb/acre): 40% | pest or weed control at 4483.4 g/ha (Bean (BN) [5]; 4 lb/acre): 70% | pest or weed control at 560.425 g/ha (Johnson grass (JG); 0.5 lb/acre): 10% | pest or weed control at 1120.85 g/ha (Johnson grass (JG); 1 lb/acre): 10% | pest or weed control at 2241.7 g/ha (Johnson grass (JG); 2 lb/acre): 50% | pest or weed control at 4483.4 g/ha (Johnson grass (JG); 4 lb/acre): 50% | pest or weed control at 560.425 g/ha (Amaranth pigweed (PW); 0.5 lb/acre): 10% | pest or weed control at 1120.85 g/ha (Amaranth pigweed (PW); 1 lb/acre): 30% | pest or weed control at 2241.7 g/ha (Amaranth pigweed (PW); 2 lb/acre): 100% | pest or weed control at 4483.4 g/ha (Amaranth pigweed (PW); 4 lb/acre): 100% | pest or weed control at 560.425 g/ha (Bean (BN) [6]; 0.5 lb/acre): 90% | pest or weed control at 1120.85 g/ha (Bean (BN) [6]; 1 lb/acre): 100% | pest or weed control at 2241.7 g/ha (Bean (BN) [6]; 2 lb/acre): 100% | pest or weed control at 4483.4 g/ha (Bean (BN) [6]; 4 lb/acre): 100% | pest or weed control at 560.425 g/ha (Crabgrass (CG) [7]; 0.5 lb/acre): 30% | pest or weed control at 1120.85 g/ha (Crabgrass (CG) [7]; 1 lb/acre): 60% | pest or weed control (Crabgrass (CG) [7]; 2 lb/acre): 90% | pest or weed control at 4483.4 g/ha (Crabgrass (CG) [7]; 4 lb/acre): 90% | pest or weed control at 560.425 g/ha (Turnip (TP) [8]; 0.5 lb/acre): 90% | pest or weed control at 1120.85 g/ha (Turnip (TP) [8]; 1 lb/acre): 100% | pest or weed control at 2241.7 g/ha (Turnip (TP) [8]; 2 lb/acre): 100% | pest or weed control at 4483.4 g/ha (Turnip (TP) [8]; 4 lb/acre): 100% | pest or weed control at 560.425 g/ha (Corn (CN); 0.5 lb/acre): 10% | pest or weed control at 1120.85 g/ha (Corn (CN); 1 lb/acre): 10% | pest or weed control at 2241.7 g/ha (Corn (CN); 2 lb/acre): 10% | pest or weed control at 4483.4 g/ha (Corn (CN); 4 lb/acre): 30% | pest or weed control at 560.425 g/ha (Barnyard grass (BG); 0.5 lb/acre): 10% | pest or weed control at 1120.85 g/ha (Barnyard grass (BG); 1 lb/acre): 10% | pest or weed control at 2241.7 g/ha (Barnyard grass (BG); 2 lb/acre): 90% | pest or weed control at 4483.4 g/ha (Barnyard grass (BG); 4 lb/acre): 90%
